The text below walks through data of US8653089B2, “Heterocyclic compounds and methods of use” (F. Hoffmann-La Roche AG, priority 2011, dated 2014).

The target in one assay is T1, p110 delta (Homo sapiens, UniProt O00329).
T1 construct: purchased Upstate Group, Millipore; Dundee, UK
Briefly: PI3K isoform inhibition assay (fluorescence polarization), p110 delta. The assay is classed as biochemical. Conditions: p110 delta binding IC50, selected compounds from Table 1. As for the experimental part:
PI3K enzymatic activity was assayed by measuring the amount of product phosphatidylinositol 3,4,5-phosphate (PIP3) formed from substrate 4,5 phosphatidylinositol 4,5-phosphate (PIP2) using a fluorescence polarization displacement assay. The decrease in fluorescence polarization of a fluorescent PIP3 probe is measured as it is displaced from a PIP3-binding protein GRP-1detector by PI3K-catalyzed product. Assays were conducted in 384-well black Proxiplates in the presence of 10 mM Tris (pH 7.5), 50 mM NaCl, 4 mM MgCl2, 5% glycerol, 25 μM ATP, 10 μM PIP2 (Echelon Biosciences), 0.05% 3-[(3-cholamidopropyl)dimethylammonio]-1-propanesulfonate, 1 mM dithiothreitol, and 2% DMSO. The kinase reactions were initiated by the addition of 40 ng/mL p110α/p85α, 300 ng/mL p110β/p85α, 40 ng/mL p110γ, or 40 ng/mL p110δ/p85α (Upstate Group, Millipore; Dundee, UK), and 10 μM PIP2 (Echelon Biosciences) to the wells. The reactions were stopped at timepoints that yielded a fixed change in fluorescence polarization consistent with initial rate conditions (typically 30 minutes), by the addition of 12.5 mM EDTA, 100 nM GRP-1 detector, and 5 nM tetramethylrhodamine-labeled PIP3 (TAMRA-PIP3; Echelon Biosciences). After 60 minutes of incubation at room temperature to allow equilibration of labeled and unlabeled PIP3 binding, the parallel and perpendicular components of the fluorescence emissions from each sample were measured at an excitation wavelength of 530 nm and an emission wavelength of 590 nm using an Envision fluorescent plate reader with a rhodamine filter (PerkinElmer Life and Analytical Sciences; Wellesley, Mass.). The assay is capable of detecting 0.1-2.0 μM PIP3 product. The IC50 values were obtained by fitting the dose-dependent inhibition data to a 4-parameter equation using Assay Explorer software (MDL, San Ramon, Calif.). […]
Recombinant PI3K p110 isoforms alpha, beta, and delta may be prepared and purified according to US 2008/0275067 from recombinant PI3K heterodimeric complexes consisting of a p110 catalytic subunit and a p85 regulatory subunit overexpressed using the BAC-TO-BAC® HT baculovirus expression system (GIBCO/BRL), and then purified for use in biochemical assays. The four Class I PI 3-kinases are cloned into baculovirus vectors as follows:
p110 delta: A FLAG™-tagged (Eastman Kodak Co., U.S. Pat. No. 4,703,004; U.S. Pat. No. 4,782,137; U.S. Pat. No. 4,851,341) version of human p110.delta (Chantry et al., J. Biol. Chem. (1997) 272:19236-41) is subcloned using standard recombinant DNA techniques into the BamHI-XbaI site of the insect cell expression vector pFastbac HTb (Life Technologies, Gaithersburg, Md.), such that the clone is in frame with the His tag of the vector.
In general terms: In fluorescence polarisation assays a small probe gives low polarisation when free and higher when bound to something large.

The subject of assay [1] is production of CD69 by B lymphocytes in human whole blood activated by crosslinking surface IgM. In words: CD69 human whole blood assay (Example 903), FACS. The assay is classed as cell-based. As to conditions: Homo sapiens, Lymphocyte, B lymphocytes activated with goat F(ab')2 anti-human IgM, read-out: CD69 Hu Blood FACS IC50. An excerpt: There is good evidence that B-cells play a key role in the pathogenesis of autoimmune and/or inflammatory disease. Protein-based therapeutics that deplete B cells such as Rituxan are effective against autoantibody-driven inflammatory diseases such as rheumatoid arthritis (Rastetter et al. (2004) Annu Rev Med 55:477). CD69 is the early activation marker in leukocytes including T cells, thymocytes, B cells, NK cells, neutrophils, and eosinophils. The CD69 human whole blood assay (Example 903) determines the ability of compounds to inhibit the production of CD69 by B lymphocytes in human whole blood activated by crosslinking surface IgM with goat F(ab′)2 anti-human IgM.

SMILES strings stand for the structures. Some results are limits rather than exact numbers.

T1 sequence (O00329 whole entry): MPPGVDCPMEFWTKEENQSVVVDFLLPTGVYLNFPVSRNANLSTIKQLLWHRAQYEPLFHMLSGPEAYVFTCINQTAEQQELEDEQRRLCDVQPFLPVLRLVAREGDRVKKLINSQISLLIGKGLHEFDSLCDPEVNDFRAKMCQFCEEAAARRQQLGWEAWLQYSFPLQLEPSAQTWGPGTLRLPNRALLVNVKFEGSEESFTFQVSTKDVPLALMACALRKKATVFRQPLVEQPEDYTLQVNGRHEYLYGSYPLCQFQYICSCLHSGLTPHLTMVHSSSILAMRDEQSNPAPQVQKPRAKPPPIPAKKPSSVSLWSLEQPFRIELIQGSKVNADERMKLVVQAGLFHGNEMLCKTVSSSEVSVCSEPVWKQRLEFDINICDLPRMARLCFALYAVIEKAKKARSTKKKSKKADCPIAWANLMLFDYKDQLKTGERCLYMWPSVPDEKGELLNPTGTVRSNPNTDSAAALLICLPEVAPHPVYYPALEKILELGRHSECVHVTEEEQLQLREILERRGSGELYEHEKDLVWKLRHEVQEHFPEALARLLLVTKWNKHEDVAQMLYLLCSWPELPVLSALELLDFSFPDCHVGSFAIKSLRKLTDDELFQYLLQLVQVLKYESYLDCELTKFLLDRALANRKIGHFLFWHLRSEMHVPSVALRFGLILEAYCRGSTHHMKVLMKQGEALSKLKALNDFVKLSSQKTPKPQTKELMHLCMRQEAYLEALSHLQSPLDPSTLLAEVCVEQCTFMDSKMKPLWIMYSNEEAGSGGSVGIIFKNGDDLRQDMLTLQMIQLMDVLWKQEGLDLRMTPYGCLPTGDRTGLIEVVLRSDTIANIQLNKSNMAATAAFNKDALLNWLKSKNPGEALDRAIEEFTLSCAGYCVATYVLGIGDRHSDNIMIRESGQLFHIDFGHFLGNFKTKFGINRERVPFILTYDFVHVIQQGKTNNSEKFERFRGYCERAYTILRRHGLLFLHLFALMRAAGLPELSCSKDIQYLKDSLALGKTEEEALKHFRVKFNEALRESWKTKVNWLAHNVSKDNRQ
T1 sequence (P27986 whole entry partner): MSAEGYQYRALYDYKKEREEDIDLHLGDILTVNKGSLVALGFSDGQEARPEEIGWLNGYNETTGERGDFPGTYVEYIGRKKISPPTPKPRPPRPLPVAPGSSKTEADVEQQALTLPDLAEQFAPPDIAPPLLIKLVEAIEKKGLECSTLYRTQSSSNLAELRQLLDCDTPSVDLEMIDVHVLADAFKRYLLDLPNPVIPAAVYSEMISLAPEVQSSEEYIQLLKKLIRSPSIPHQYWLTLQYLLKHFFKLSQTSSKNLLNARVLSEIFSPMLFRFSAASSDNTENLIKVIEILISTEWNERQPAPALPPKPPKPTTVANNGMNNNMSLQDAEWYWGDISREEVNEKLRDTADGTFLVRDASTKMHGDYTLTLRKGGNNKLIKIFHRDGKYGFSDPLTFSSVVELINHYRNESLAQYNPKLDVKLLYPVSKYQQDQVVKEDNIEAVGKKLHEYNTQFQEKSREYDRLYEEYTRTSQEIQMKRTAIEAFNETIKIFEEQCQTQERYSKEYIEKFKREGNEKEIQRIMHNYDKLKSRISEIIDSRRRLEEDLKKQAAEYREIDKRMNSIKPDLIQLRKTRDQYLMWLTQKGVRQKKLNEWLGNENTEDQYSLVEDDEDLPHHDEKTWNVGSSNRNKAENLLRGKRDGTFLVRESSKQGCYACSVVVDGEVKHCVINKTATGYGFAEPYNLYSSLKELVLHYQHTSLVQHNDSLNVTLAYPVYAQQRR

As to `Nc1ncnc2c1ccn2Cc1nc2ccccc2n1-c1ccccc1` [Example 139, 7-((1-phenyl-1H-benzo[d]imidazol-2-yl)methyl)-7H-pyrrolo[2,3-d]pyrimidin-4-amine], the half-maximal inhibitory concentration (IC50) – broadly, the concentration that inhibits the measured activity by half – at p110 delta is 302 nM. The same measure, in the same setting: under `Cc1nn(Cc2nc3ccccc3n2-c2ccccc2)c2ncnc(N)c12` [Example 142, 3-methyl-1-((1-phenyl-1H-benzo[d]imidazol-2-yl)methyl)-1H-pyrazolo[3,4-d]pyrimidin-4-amine] stands 278 nM.

On to `COc1c(F)ccc2nc([C@H](C)Nc3ncnc(N)c3C#N)n(-c3ccccc3)c12` [Example 339, 4-Amino-6-[(S)-1-(6-fluoro-7-methoxy-1-phenyl-1H-benzoimidazol-2-yl)-ethylamino]-pyrimidine-5-carbonitrile], for which, in assay [1], the IC50 worked out at 4.93 nM.

Consider `Cc1nccc(N[C@@H](C)c2nc3ccc(F)cc3n2-c2ccccc2)c1C#N` [Example 340, 4-[(S)-1-(6-Fluoro-1-phenyl-1H-benzoimidazol-2-yl)-ethylamino]-2-methyl-nicotinonitrile], for which the IC50 in assay [1] came to 606 nM. As for `C[C@H](Nc1ncnc(N)c1C#N)c1nc2ccc(F)c(CC#N)c2n1-c1ccccc1` [Example 345, 4-Amino-6-[(S)-1-(7-cyanomethyl-6-fluoro-1-phenyl-1H-benzoimidazol-2-yl)-ethylamino]-pyrimidine-5-carbonitrile], the half-maximal inhibitory concentration (IC50) in assay [1] turned out to be 2.91 nM. The same measure, in the same setting: under `C[C@H](Nc1ncnc(N)c1C#N)c1nc2ccc(F)c(C#N)c2n1-c1cncc(F)c1` [Example 347, 2-[(S)-1-(6-Amino-5-cyano-pyrimidin-4-ylamino)-ethyl]-5-fluoro-3-(5-fluoro-pyridin-3-yl)-3H-benzoimidazole-4-carbonitrile] stands 158 nM; under `CC[C@H](Nc1ncnc(N)c1C#N)c1nc2ccc(F)cc2n1-c1cncc(F)c1` [Example 350, 4-Amino-6-{(S)-1-[6-fluoro-1-(5-fluoro-pyridin-3-yl)-1H-benzoimidazol-2-yl]-propylamino}-pyrimidine-5-carbonitrile], 83.9 nM; under `C[C@H](Nc1ncnc(N)c1C#N)c1nc2ccc(F)cc2n1-c1ccncc1` [Example 354, 4-Amino-6-[(S)-1-(6-fluoro-1-pyridin-4-yl-1H-benzoimidazol-2-yl)-ethylamino]-pyrimidine-5-carbonitrile], 48.4 nM. Same read-out and setting: with `N#Cc1c(N)ncnc1NCc1nc2ccc(F)cc2n1-c1ccccc1` [Example 371, 4-amino-6-((6-fluoro-1-phenyl-1H-benzo[d]imidazol-2-yl)methylamino)pyrimidine-5-carbonitrile] the figure was 514 nM. For `CC(C)N1CC(n2c([C@H](C)Nc3ncnc4[nH]cnc34)nc3ccc(F)cc32)C1` [Example 380, N-[(1S)-1-[6-fluoro-1-(1-isopropylazetidin-3-yl)benzimidazol-2-yl]ethyl]-9H-purin-6-amine], the IC50 in assay [1] turned out to be 58.2 nM. Turning to `C[C@H](Nc1ncnc2[nH]cnc12)c1nc2ccc(F)c(C(=O)N3CCOCC3)c2n1C1CC1` [Example 389, [3-cyclopropyl-5-fluoro-2-[(1S)-1-(9H-purin-6-ylamino)ethyl]benzimidazol-4-yl]-morpholino-methanone], the concentration for half-maximal inhibition (IC50) in assay [1] stood at 11.9 nM. `C[C@H](Nc1ncnc2[nH]cnc12)c1nc2ccc(F)cc2n1[C@H]1C[C@@H](O)C1` [Example 390, 3-[6-fluoro-2-[(1S)-1-(9H-purin-6-ylamino)ethyl]benzimidazol-1-yl]cyclobutanol]: in assay [1], the concentration for half-maximal inhibition (IC50) was 146 nM. `C[C@H](Nc1ncnc(N)c1C#N)c1nc2ccc(F)c(C(=O)N3CCOCC3)c2n1C1CC1` [Example 401, 4-amino-6-[[(1S)-1-[1-cyclopropyl-6-fluoro-7-(morpholine-4-carbonyl)benzimidazol-2-yl]ethyl]amino]pyrimidine-5-carbonitrile]: the IC50 in assay [1] was 23.2 nM.

Take `C[C@H](Nc1ncnc(N)c1C#N)c1nc2ccc(F)cc2n1-c1ccn(C)n1` [Example 402, 4-amino-6-[[(1S)-1-[6-fluoro-1-(1-methylpyrazol-3-yl)benzimidazol-2-yl]ethyl]amino]pyrimidine-5-carbonitrile]: the IC50 in assay [1] came out at 64.7 nM. As for `C[C@H](Nc1ncnc2[nH]cnc12)c1nc2ccc(F)cc2n1-c1ccn(C)n1` [Example 403, N-[(1S)-1-[6-fluoro-1-(1-methylpyrazol-3-yl)benzimidazol-2-yl]ethyl]-9H-purin-6-amine], the half-maximal inhibitory concentration (IC50) in assay [1] stood at 163 nM.

Regarding `C[C@H](Nc1ncnc(N)c1C#N)c1nc2ccc(F)c3c2n1CCCC3` [Example 406, 4-Amino-6-[(S)-1-(5-fluoro-6,7,8,9-tetrahydro-2,9a-diazabenzo[cd]azulen-1-yl)ethylamino]pyrimidine-5-carbonitrile], the IC50 in assay [1] came out at 32.6 nM. Still for that read-out and setting: under `CC(C)n1c([C@H](C)Nc2ncnc(N)c2C#N)nc2ccc(F)c(-c3ccccn3)c21` [Example 408, 4-amino-6-[[(1S)-1-[6-fluoro-1-isopropyl-7-(2-pyridyl)benzimidazol-2-yl]ethyl]amino]pyrimidine-5-carbonitrile] stands 163 nM.

`CC(C)n1c([C@H](C)Nc2ncnc3[nH]cnc23)nc2ccc(F)c(-c3ccccn3)c21` [Example 409, N-[(1S)-1-[6-fluoro-1-isopropyl-7-(2-pyridyl)benzimidazol-2-yl]ethyl]-9H-purin-6-amine]: in assay [1], the IC50 worked out at 64.2 nM. For `C[C@H](Nc1ncnc(N)c1C#N)c1nc2ccc(F)c(-c3ccccn3)c2n1C` [Example 411, 4-amino-6-[[(1S)-1-[6-fluoro-1-methyl-7-(2-pyridyl)benzimidazol-2-yl]ethyl]amino]pyrimidine-5-carbonitrile], in assay [1], the concentration for half-maximal inhibition (IC50) came out at 895 nM. On the same count and under the same terms, under `C[C@H](Nc1ncnc(N)c1C#N)c1nc2ccc(F)c(-c3ccccc3)c2n1C1CC1` [Example 415, 4-amino-6-[[(1S)-1-(1-cyclopropyl-6-fluoro-7-phenyl-benzimidazol-2-yl)ethyl]amino]pyrimidine-5-carbonitrile] stands 224 nM; under `C[C@H](Nc1ncnc(N)c1C#N)c1nc2ccc(F)cc2n1-c1ccnn1C` [Example 416, 4-amino-6-[[(1S)-1-[6-fluoro-1-(2-methylpyrazol-3-yl)benzimidazol-2-yl]ethyl]amino]pyrimidine-5-carbonitrile], 67.8 nM; under `C[C@H](Nc1ncnc2[nH]cnc12)c1nc2ccc(F)cc2n1-c1ccnn1C` [Example 417, N-[(1S)-1-[6-fluoro-1-(2-methylpyrazol-3-yl)benzimidazol-2-yl]ethyl]-9H-purin-6-amine], 140 nM. On the same count and under the same terms, with `C[C@H](Nc1ncnc(N)c1C#N)c1nc2ccc(F)cc2n1-c1cnn(C)c1` [Example 418, 4-amino-6-[[(1S)-1-[6-fluoro-1-(1-methylpyrazol-4-yl)benzimidazol-2-yl]ethyl]amino]pyrimidine-5-carbonitrile] the figure was 107 nM; with `C[C@H](Nc1ncnc2[nH]cnc12)c1nc2ccc(F)cc2n1-c1cnn(C)c1` [Example 419, N-[(1S)-1-[6-fluoro-1-(1-methylpyrazol-4-yl)benzimidazol-2-yl]ethyl]-9H-purin-6-amine], 43.3 nM; with `C[C@H](Nc1ncnc(N)c1C#N)c1nc2ccc(F)c(-c3ccccn3)c2n1C1CC1` [Example 442, 4-Amino-6-[(S)-1-(1-cyclopropyl-6-fluoro-7-pyridin-2-yl-1H-benzoimidazol-2-yl)ethylamino]-pyrimidine-5-carbonitrile], 797 nM. With `Fc1ccc2nc(CNc3ncnc4[nH]cnc34)n(-c3ccccc3)c2c1` [Example 443, (6-Fluoro-1-phenyl-1H-benzoimidazol-2-ylmethyl)-(9H-purin-6-yl)amine], the half-inhibitory concentration (IC50) in assay [1] was > 5000 nM.
